Results published in US10214561B2, “Peptide having activity of inhibiting production of toxin by bacterium belonging to genus clostridium” (MIYARISAN PHARMACEUTICAL CO., LTD., priority 2014, dated 2019).
“Also recorded” adds a separate entry of the source. Where two headings read alike, the source gives them in different places. No end group written: not given here.

Key:
[1] = system: Clostridium welchii theta-toxin (pfoA); format: cell-based, Clostridium welchii strain 13
[2] = system: theta-toxin (pfoA) gene; format: cell-based, Clostridium welchii strain 13
[3] = read-out: IC50 of the inhibitory activity on the toxin production (pfoA expression amount as indicator)

Row | Substance | IC50 (μM) [1] | agonist activity or antagonist activity (pfoA expression) [1] | further results
1 | CLFWT [SEQ ID NO. 22 (Hydrogen atom)] | – | – | IC50 ([1]; read-out: IC50): 0.5 µM
2 | Cys-Phe-Trp-Ala-His [cyclic CFWAH] | – | – | activity of inhibiting toxin expression (theta-toxin pfoA, Northern blot, FIG. 5) [2]: particularly high activity; also recorded: inhibitory activity; expression of the gene encoding theta-toxin (pfoA) (FIG. 9) [1]: inhibited; IC50 [1, 3]: 10 µM
3 | AgrDcb-lactam: Peptide of Formula (2), CFWAH lactam obtained by ammonia conversion of AgrDcb-thiolactone (lactam (positions not given here); also: lactam from ammonia conversion of thiolactone, places not given here) | – | – | expression of the gene encoding theta-toxin (pfoA) (FIG. 9) [1]: inhibited; IC50 [1, 3]: 10 µM
4 | ACFWAH [peptide 6n] | – | – | activity of inhibiting toxin expression (theta-toxin pfoA, Northern blot, FIG. 5) [2]: activity of inhibiting toxin expression was shown; also recorded: inhibitory activity
5 | CLAFT [SEQ ID NO. 39 (Benzyloxycarbonyl group), reference compound] | (No activity) | neither the agonist activity nor antagonist activity | –
6 | CAWAA [SEQ ID NO. 33 (Benzyloxycarbonyl group)] | – | antagonist activity | –
7 | CLFWS [SEQ ID NO. 42 (Benzyloxycarbonyl group), reference compound] | (No activity) | – | –
8 | CLFWT [SEQ ID NO. 22 (Benzyloxycarbonyl group)] | – | antagonist activity | –
9 | CLWFA [SEQ ID NO. 38 (Benzyloxycarbonyl group), reference compound] | (Agonist) | agonist activity | –
10 | CLWAS [SEQ ID NO. 35 (Benzyloxycarbonyl group)] | – | – | IC50 ([1]; read-out: IC50): 1 µM
11 | CLWFT [SEQ ID NO. 40 (Benzyloxycarbonyl group), reference compound] | (Agonist) | agonist activity | –
12 | CLWYT [SEQ ID NO. 41 (Benzyloxycarbonyl group), reference compound] | (Agonist) | – | –
13 | CLWAT [SEQ ID NO. 31 (Benzyloxycarbonyl group)] | – | antagonist activity | –
14 | CAWFT [SEQ ID NO. 37 (Benzyloxycarbonyl group), reference compound] | (No activity) | – | –
15 | CLWFS [SEQ ID NO. 21 (Benzyloxycarbonyl group)] | – | antagonist | –
16 | CAWFA [SEQ ID NO. 20 (Hydrogen atom)] | – | – | IC50 ([1]; read-out: IC50): 0.3 µM
